Data from patent US20250122155A1, “NOVEL INDOLE DERIVATIVE, PHARMACEUTICAL COMPOSITION COMPRISING SAME, AND USE THEREOF” (MITOIMMUNE THERAPEUTICS INC., priority 2021, published 2025).

What follows are compounds tested on H9C2 cells (assay: Protective effect on heart cells against t-BHP (LDH release)). Settings: H9C2, t-BHP 400 μM, 2 hours, read-out: EC50 (μM), Cell Protection Effect against t-BHP in Heart Cells.
Type: cell-based
Outline: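 H9C2 cells (1.5×10^4/well, cultured 24 h) were pretreated 15–20 min with compound at 0.01–30 μM final, then exposed 2 h to 400 μM t-BHP. LDH in supernatant was measured colorimetrically at 490 nm after 30 min room-temperature reaction; EC50 derived from protection.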

Structure (SMILES) | EC50 [µM]
COCCOCc1cc(NC2CCOCC2)c2[nH]c(-c3ccccc3)cc2c1 [Example 1, 5-(2-methoxyethoxymethyl)-2-phenyl-N-tetrahydropyran-4-yl-1H-indol-7-amine] | ≤ 0.3
COCCOCc1cc(NC2CCNCC2)c2[nH]c(-c3ccccc3)cc2c1 [Example 64, 5-((2-methoxyethoxy)methyl)-2-phenyl-N-(piperidin-4-yl)-1H-indol-7-amine] | ≤ 0.3

The compounds below were run on NIH/3T3 cells (assay: Cell death protective effect in fibroblasts against Erastin, glutamate and RSL3 (LDH)). Settings: NIH/3T3, Erastin 3 μM, compound 0.1 μM, 24 hours.
Type: cell-based, mouse
Procedure: (§1) In order to identify the protective effect on fibroblasts, NIH/3T3 cells were divided into 96-well plates by 8×10^3 and cultured for 18 to 24 hours. The compounds of Examples were diluted to final concentrations of 0.1 and 1 μM, treated in each well, and incubated for 15 to 20 minutes. Erastin, glutamate, and RSL3 were treated to have final concentrations of 3 μM, 30 mM, and 3 μM, respectively, and cultured for 24 hours. In order to identify the protective effect of each compound, the degree of LDH extracellular secretion was measured using cytotoxicity LDH assay kit [Dojindo; CK12]. Briefly, at the time when the treatment of the cells with Erastin, glutamate, and RSL3 for 24 hours is completed, the supernatants containing the cells are taken by 70 μL and transferred to a new 96-well plate. The assay buffer included in the kit is added in an amount of 70 μL/well (the same amount as the sample) thereto, and then the plate is wrapped with a foil and the reaction is performed at room temperature for 15 minutes. After observing the changed color of the sample, the stop solution was added in an amount of 35 μL/well thereto, and then the 00 inhibition value was calculated by measuring the absorbance value at a wavelength of 490 nm using an iD3 spectrophotometer.

Structure (SMILES) | inhibition (%)
COCCOCc1cc(NC2CCOCC2)c2[nH]c(-c3ccccc3)cc2c1 [Example 1, 5-(2-methoxyethoxymethyl)-2-phenyl-N-tetrahydropyran-4-yl-1H-indol-7-amine] | 99
COCCOCc1cc(NC2CCNCC2)c2[nH]c(-c3ccccc3)cc2c1 [Example 64, 5-((2-methoxyethoxy)methyl)-2-phenyl-N-(piperidin-4-yl)-1H-indol-7-amine] | 99

Same assay, conditions: NIH/3T3, Erastin 3 μM, compound 1.0 μM, 24 hours

Structure (SMILES) | inhibition (%)
COCCOCc1cc(NC2CCOCC2)c2[nH]c(-c3ccccc3)cc2c1 [Example 1, 5-(2-methoxyethoxymethyl)-2-phenyl-N-tetrahydropyran-4-yl-1H-indol-7-amine] | 100
COCCOCc1cc(NC2CCNCC2)c2[nH]c(-c3ccccc3)cc2c1 [Example 64, 5-((2-methoxyethoxy)methyl)-2-phenyl-N-(piperidin-4-yl)-1H-indol-7-amine] | 100

Same assay, conditions: NIH/3T3, Glutamate 30 mM, compound 0.1 μM, 24 hours

Structure (SMILES) | inhibition (%)
COCCOCc1cc(NC2CCOCC2)c2[nH]c(-c3ccccc3)cc2c1 [Example 1, 5-(2-methoxyethoxymethyl)-2-phenyl-N-tetrahydropyran-4-yl-1H-indol-7-amine] | 100
COCCOCc1cc(NC2CCNCC2)c2[nH]c(-c3ccccc3)cc2c1 [Example 64, 5-((2-methoxyethoxy)methyl)-2-phenyl-N-(piperidin-4-yl)-1H-indol-7-amine] | 99

Same assay, conditions: NIH/3T3, Glutamate 30 mM, compound 1.0 μM, 24 hours

Structure (SMILES) | inhibition (%)
COCCOCc1cc(NC2CCOCC2)c2[nH]c(-c3ccccc3)cc2c1 [Example 1, 5-(2-methoxyethoxymethyl)-2-phenyl-N-tetrahydropyran-4-yl-1H-indol-7-amine] | 100
COCCOCc1cc(NC2CCNCC2)c2[nH]c(-c3ccccc3)cc2c1 [Example 64, 5-((2-methoxyethoxy)methyl)-2-phenyl-N-(piperidin-4-yl)-1H-indol-7-amine] | 100

Same assay, conditions: NIH/3T3, RSL3 3 μM, compound 0.1 μM, 24 hours

Structure (SMILES) | inhibition (%)
COCCOCc1cc(NC2CCOCC2)c2[nH]c(-c3ccccc3)cc2c1 [Example 1, 5-(2-methoxyethoxymethyl)-2-phenyl-N-tetrahydropyran-4-yl-1H-indol-7-amine] | 100
COCCOCc1cc(NC2CCNCC2)c2[nH]c(-c3ccccc3)cc2c1 [Example 64, 5-((2-methoxyethoxy)methyl)-2-phenyl-N-(piperidin-4-yl)-1H-indol-7-amine] | 100

Same assay, conditions: NIH/3T3, RSL3 3 μM, compound 1.0 μM, 24 hours

Structure (SMILES) | inhibition (%)
COCCOCc1cc(NC2CCOCC2)c2[nH]c(-c3ccccc3)cc2c1 [Example 1, 5-(2-methoxyethoxymethyl)-2-phenyl-N-tetrahydropyran-4-yl-1H-indol-7-amine] | 100
COCCOCc1cc(NC2CCNCC2)c2[nH]c(-c3ccccc3)cc2c1 [Example 64, 5-((2-methoxyethoxy)methyl)-2-phenyl-N-(piperidin-4-yl)-1H-indol-7-amine] | 100

Each compound was assayed on H9C2 cells (assay: Cell death protective effect in cardiac myocytes against Erastin, glutamate and RSL3 (LDH)). Settings: H9C2, Erastin 1 μM, compound 0.1 μM, 24 hours.
Type: cell-based, rat
Procedure: as §1, with “on cardiac cells, H9C2” for “on fibroblasts, NIH/3T3”, “by 1×10^4” for “by 8×10^3”, “of 1” for “of 3”, “μM, 25” for “μM, 30”, “and 0.5” for “and 3”, “minutes.” for “minutes. After observing the changed color of the sample, the stop solution was added in an amount of 35 μL/well thereto, and then the 00 inhibition value was calculated by measuring the absorbance value at a wavelength of 490 nm using an iD3 spectrophotometer.”

Structure (SMILES) | inhibition (%)
COCCOCc1cc(NC2CCOCC2)c2[nH]c(-c3ccccc3)cc2c1 [Example 1, 5-(2-methoxyethoxymethyl)-2-phenyl-N-tetrahydropyran-4-yl-1H-indol-7-amine] | 100
COCCOCc1cc(NC2CCNCC2)c2[nH]c(-c3ccccc3)cc2c1 [Example 64, 5-((2-methoxyethoxy)methyl)-2-phenyl-N-(piperidin-4-yl)-1H-indol-7-amine] | 100

Same assay, conditions: H9C2, Erastin 1 μM, compound 1.0 μM, 24 hours

Structure (SMILES) | inhibition (%)
COCCOCc1cc(NC2CCOCC2)c2[nH]c(-c3ccccc3)cc2c1 [Example 1, 5-(2-methoxyethoxymethyl)-2-phenyl-N-tetrahydropyran-4-yl-1H-indol-7-amine] | 100
COCCOCc1cc(NC2CCNCC2)c2[nH]c(-c3ccccc3)cc2c1 [Example 64, 5-((2-methoxyethoxy)methyl)-2-phenyl-N-(piperidin-4-yl)-1H-indol-7-amine] | 100

Same assay, conditions: H9C2, Glutamate 25 mM, compound 0.1 μM, 24 hours

Structure (SMILES) | inhibition (%)
COCCOCc1cc(NC2CCOCC2)c2[nH]c(-c3ccccc3)cc2c1 [Example 1, 5-(2-methoxyethoxymethyl)-2-phenyl-N-tetrahydropyran-4-yl-1H-indol-7-amine] | 96
COCCOCc1cc(NC2CCNCC2)c2[nH]c(-c3ccccc3)cc2c1 [Example 64, 5-((2-methoxyethoxy)methyl)-2-phenyl-N-(piperidin-4-yl)-1H-indol-7-amine] | 97

Same assay, conditions: H9C2, Glutamate 25 mM, compound 1.0 μM, 24 hours

Structure (SMILES) | inhibition (%)
COCCOCc1cc(NC2CCOCC2)c2[nH]c(-c3ccccc3)cc2c1 [Example 1, 5-(2-methoxyethoxymethyl)-2-phenyl-N-tetrahydropyran-4-yl-1H-indol-7-amine] | 97
COCCOCc1cc(NC2CCNCC2)c2[nH]c(-c3ccccc3)cc2c1 [Example 64, 5-((2-methoxyethoxy)methyl)-2-phenyl-N-(piperidin-4-yl)-1H-indol-7-amine] | 97

Same assay, conditions: H9C2, RSL3 0.5 μM, compound 0.1 μM, 24 hours

Structure (SMILES) | inhibition (%)
COCCOCc1cc(NC2CCOCC2)c2[nH]c(-c3ccccc3)cc2c1 [Example 1, 5-(2-methoxyethoxymethyl)-2-phenyl-N-tetrahydropyran-4-yl-1H-indol-7-amine] | 100
COCCOCc1cc(NC2CCNCC2)c2[nH]c(-c3ccccc3)cc2c1 [Example 64, 5-((2-methoxyethoxy)methyl)-2-phenyl-N-(piperidin-4-yl)-1H-indol-7-amine] | 90

Same assay, conditions: H9C2, RSL3 0.5 μM, compound 1.0 μM, 24 hours

Structure (SMILES) | inhibition (%)
COCCOCc1cc(NC2CCOCC2)c2[nH]c(-c3ccccc3)cc2c1 [Example 1, 5-(2-methoxyethoxymethyl)-2-phenyl-N-tetrahydropyran-4-yl-1H-indol-7-amine] | 98
COCCOCc1cc(NC2CCNCC2)c2[nH]c(-c3ccccc3)cc2c1 [Example 64, 5-((2-methoxyethoxy)methyl)-2-phenyl-N-(piperidin-4-yl)-1H-indol-7-amine] | 95

These compounds were tested on NRK-49F cells (assay: Cell death protective effect in renal fibroblasts against Erastin, glutamate and RSL3 (LDH)). Settings: Erastin 3 μM, compound 0.1 μM, 24 hours.
Type: cell-based, rat
Procedure: In order to identify the protective effect on renal fibroblasts, NRK-49F cells were divided into 96-well plates by 1×10^4 and cultured for 18 to 24 hours. The compounds of Examples were diluted to final concentrations of 0.1 and 1 μM, treated in each well, and incubated for 15 to 20 minutes. Erastin, glutamate, and RSL3 were treated to have final concentrations of 3 μM, 75 mM, and 3 μM, respectively, and cultured for 24 hours. In order to identify the protective effect of each compound, the degree of LDH extracellular secretion was measured using cytotoxicity LDH assay kit [Dojindo; CK12]. Briefly, at the time when the treatment of the cells with Erastin, glutamate, and RSL3 for 24 hours is completed, the supernatants containing the cells are taken by 70 μl and transferred to a new 96-well plate. The assay buffer included in the kit is added in an amount of 70 μL/well (the same amount as the sample) thereto, and then the plate is wrapped with a foil and the reaction is performed at room temperature for 15 minutes.

Structure (SMILES) | inhibition (%)
COCCOCc1cc(NC2CCOCC2)c2[nH]c(-c3ccccc3)cc2c1 [Example 1, 5-(2-methoxyethoxymethyl)-2-phenyl-N-tetrahydropyran-4-yl-1H-indol-7-amine] | 99
COCCOCc1cc(NC2CCNCC2)c2[nH]c(-c3ccccc3)cc2c1 [Example 64, 5-((2-methoxyethoxy)methyl)-2-phenyl-N-(piperidin-4-yl)-1H-indol-7-amine] | 100

Same assay, conditions: Erastin 3 μM, compound 1.0 μM, 24 hours

Structure (SMILES) | inhibition (%)
COCCOCc1cc(NC2CCOCC2)c2[nH]c(-c3ccccc3)cc2c1 [Example 1, 5-(2-methoxyethoxymethyl)-2-phenyl-N-tetrahydropyran-4-yl-1H-indol-7-amine] | 99
COCCOCc1cc(NC2CCNCC2)c2[nH]c(-c3ccccc3)cc2c1 [Example 64, 5-((2-methoxyethoxy)methyl)-2-phenyl-N-(piperidin-4-yl)-1H-indol-7-amine] | 100

Same assay, conditions: Glutamate 75 mM, compound 0.1 μM, 24 hours

Structure (SMILES) | inhibition (%)
COCCOCc1cc(NC2CCOCC2)c2[nH]c(-c3ccccc3)cc2c1 [Example 1, 5-(2-methoxyethoxymethyl)-2-phenyl-N-tetrahydropyran-4-yl-1H-indol-7-amine] | 100
COCCOCc1cc(NC2CCNCC2)c2[nH]c(-c3ccccc3)cc2c1 [Example 64, 5-((2-methoxyethoxy)methyl)-2-phenyl-N-(piperidin-4-yl)-1H-indol-7-amine] | 7

Same assay, conditions: Glutamate 75 mM, compound 1.0 μM, 24 hours

Structure (SMILES) | inhibition (%)
COCCOCc1cc(NC2CCOCC2)c2[nH]c(-c3ccccc3)cc2c1 [Example 1, 5-(2-methoxyethoxymethyl)-2-phenyl-N-tetrahydropyran-4-yl-1H-indol-7-amine] | 100
COCCOCc1cc(NC2CCNCC2)c2[nH]c(-c3ccccc3)cc2c1 [Example 64, 5-((2-methoxyethoxy)methyl)-2-phenyl-N-(piperidin-4-yl)-1H-indol-7-amine] | 99

Same assay, conditions: RSL3 3 μM, compound 0.1 μM, 24 hours

Structure (SMILES) | inhibition (%)
COCCOCc1cc(NC2CCOCC2)c2[nH]c(-c3ccccc3)cc2c1 [Example 1, 5-(2-methoxyethoxymethyl)-2-phenyl-N-tetrahydropyran-4-yl-1H-indol-7-amine] | 99
COCCOCc1cc(NC2CCNCC2)c2[nH]c(-c3ccccc3)cc2c1 [Example 64, 5-((2-methoxyethoxy)methyl)-2-phenyl-N-(piperidin-4-yl)-1H-indol-7-amine] | 70

Same assay, conditions: RSL3 3 μM, compound 1.0 μM, 24 hours

Structure (SMILES) | inhibition (%)
COCCOCc1cc(NC2CCOCC2)c2[nH]c(-c3ccccc3)cc2c1 [Example 1, 5-(2-methoxyethoxymethyl)-2-phenyl-N-tetrahydropyran-4-yl-1H-indol-7-amine] | 99
COCCOCc1cc(NC2CCNCC2)c2[nH]c(-c3ccccc3)cc2c1 [Example 64, 5-((2-methoxyethoxy)methyl)-2-phenyl-N-(piperidin-4-yl)-1H-indol-7-amine] | 100

The compounds below were run on MLE-12 cells (assay: Cell death protective effect in lung epithelial cells against RSL3 (LDH)). Settings: MLE-12, RSL3 1.0 μM, compound 0.1 μM, 24 hours.
Type: cell-based, rat
Procedure: In order to identify the protective effect on lung epithelial cells, MLE-12 cells were divided into 96-well plates by 5×10^3 and cultured for 18 to 24 hours. The compounds of Examples were diluted to final concentrations of 0.1 and 1.0 μM, treated in each well, and incubated for 20 minutes. RSL3 was treated to have final concentrations of 1.0 μM, respectively, and cultured for 24 hours. In order to identify the protective effect of each compound, the degree of LDH extracellular secretion was measured using cytotoxicity LDH assay kit [Dojindo; CK12]. Briefly, at the time when the treatment of the cells with RSL3 for 24 hours is completed, the supernatants containing the cells are taken by 70 μL and transferred to a new 96-well plate. The assay buffer included in the kit is added in an amount of 70 μL/well (the same amount as the sample) thereto, and then the plate is wrapped with a foil and the reaction is performed at room temperature for 15 minutes.

Structure (SMILES) | inhibition (%)
COCCOCc1cc(NC2CCOCC2)c2[nH]c(-c3ccccc3)cc2c1 [Example 1, 5-(2-methoxyethoxymethyl)-2-phenyl-N-tetrahydropyran-4-yl-1H-indol-7-amine] | 100
COCCOCc1cc(NC2CCNCC2)c2[nH]c(-c3ccccc3)cc2c1 [Example 64, 5-((2-methoxyethoxy)methyl)-2-phenyl-N-(piperidin-4-yl)-1H-indol-7-amine] | 100

Same assay, conditions: MLE-12, RSL3 1.0 μM, compound 1.0 μM, 24 hours

Structure (SMILES) | inhibition (%)
COCCOCc1cc(NC2CCOCC2)c2[nH]c(-c3ccccc3)cc2c1 [Example 1, 5-(2-methoxyethoxymethyl)-2-phenyl-N-tetrahydropyran-4-yl-1H-indol-7-amine] | 100
COCCOCc1cc(NC2CCNCC2)c2[nH]c(-c3ccccc3)cc2c1 [Example 64, 5-((2-methoxyethoxy)methyl)-2-phenyl-N-(piperidin-4-yl)-1H-indol-7-amine] | 98
